Reference: article PMC11148373, “Cubeb (Piper cubeba L.): nutritional value, phytochemical profiling and dermacosmeceutical properties” (Frontiers in Nutrition, 2024)

Target: T1, elastase from porcine pancreas (Sus scrofa, UniProt P00772)
T1 construct: gene CELA1; commercial native porcine pancreatic elastase (Sigma Aldrich)
Test: N-Succinyl-Ala-Ala-Ala-p-nitroanilide hydrolysis, absorbance at […] nm
Format: biochemical
Conditions: read-out: IC50 (μg/mL) / Elastase (converted)

T1 sequence (P00772 27-266): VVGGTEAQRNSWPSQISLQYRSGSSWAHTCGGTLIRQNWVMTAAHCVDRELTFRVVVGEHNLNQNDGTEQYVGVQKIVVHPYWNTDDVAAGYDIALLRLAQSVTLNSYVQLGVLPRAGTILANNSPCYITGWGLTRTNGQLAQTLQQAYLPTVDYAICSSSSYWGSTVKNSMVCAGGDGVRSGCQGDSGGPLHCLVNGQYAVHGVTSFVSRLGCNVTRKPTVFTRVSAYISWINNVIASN

IC50: 505 µM
SMILES: O=C(O[C@@H]1Cc2c(O)cc(O)cc2O[C@@H]1c1cc(O)c(O)c(O)c1)c1cc(O)c(O)c(O)c1 [Epigallocatechin gallate]
